What was measured:
Format in all cases: in vivo
[1] = tested on: ducksalad (Heteranthera limosa); experiment: Test B flooded paddy test plant response; conditions: Flood (flooded paddy test), scale 0 to 100, 0 no effect, 100 complete control
In short: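 Rice, umbrella sedge, ducksalad and barnyardgrass at 2-leaf stage; pots flooded to 3 cm, compounds applied into paddy water, depth held throughout. Greenhouse 13 to 15 days, then visual rating vs untreated controls on 0–100 scale (0 no effect, 100 complete control); dash means no test result.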

[2] = tested on: cocklebur (Xanthium strumarium); experiment: Test B pre-/postemergence plant response
In short: (§1)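 Preemergence and postemergence (plants 2-18 cm, 1- to 4-leaf stage) applications used test chemicals in a non-phytotoxic solvent with surfactant. Plants were held in a greenhouse 13 to 15 days, then rated visually against controls on a 0-100 scale (0 no effect, 100 complete control).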

[3] = tested on: goosegrass (Eleusine indica); experiment: Test B pre-/postemergence plant response
In short: as §1

[4] = tested on: common (oilseed) sunflower (Helianthus annuus); experiment: Test B pre-/postemergence plant response; conditions: Preemergence
In short: as §1

corn (Zea mays) = experiment: Test B pre-/postemergence plant response
In short: as §1

[5] = tested on: bermudagrass (Cynodon dactylon); experiment: Test B pre-/postemergence plant response
In short: as §1

[6] = tested on: common ragweed (Ambrosia elation); experiment: Test B pre-/postemergence plant response
In short: as §1

[7] = tested on: Russian thistle (Salsola iberica); experiment: Test B pre-/postemergence plant response; conditions: Preemergence
In short: as §1

[8] = tested on: large crabgrass (Digitaria sanguinalis); experiment: Test B pre-/postemergence plant response
In short: as §1

soybean (Glycine max) = experiment: Test B pre-/postemergence plant response
In short: as §1

[9] = tested on: lambsquarters (Chenopodium album); experiment: Test B pre-/postemergence plant response
In short: as §1

kochia (Kochia scoparia) = experiment: Test B pre-/postemergence plant response
In short: as §1

[10] = tested on: surinam grass (Brachiaria decumbens); experiment: Test B pre-/postemergence plant response
In short: as §1

[11] = tested on: wheat (Triticum aestivum); experiment: Test B pre-/postemergence plant response
In short: as §1

[12] = 8 g ai/ha, postemergence, 0-100 scale
[13] = Postemergence, 16 g ai/ha, scale 0 to 100
[14] = Postemergence, 31 g ai/ha, scale 0 to 100, 0 no effect, 100 complete control
[15] = Postemergence, 62 g ai/ha, scale 0 to 100, 0 no effect, 100 complete control
[16] = Preemergence, 16 g ai/ha, scale 0 to 100 (0 no effect, 100 complete control)
[17] = Preemergence, 31 g ai/ha, 0 to 100 scale, 0 no effect, 100 complete control
[18] = Preemergence, 62 g ai/ha, scale 0 to 100
[19] = Preemergence, 8 g ai/ha, scale 0 to 100
[20] = 16 g ai/ha, scale 0 to 100 (0 no effect, 100 complete control)
[21] = 31 g ai/ha, 0 to 100 scale, 0 no effect, 100 complete control
[22] = Preemergence, 8 g ai/ha, scale 0 to 100 (0 no effect, 100 complete control)
[23] = Postemergence, 31 g ai/ha, scale 0 to 100
[24] = Preemergence, 31 g ai/ha, scale 0 to 100 (0 no effect, 100 complete control)
[25] = Preemergence, 62 g ai/ha, 0 to 100 scale, 0 no effect, 100 complete control
[26] = Preemergence, 16 g ai/ha, scale 0 to 100
[27] = 16 g ai/ha, postemergence, 0-100 scale
[28] = 31 g ai/ha, scale 0 to 100 (0 no effect, 100 complete control)
[29] = 62 g ai/ha, 0 to 100 scale, 0 no effect, 100 complete control

Compound: Cc1cc(-c2ccc(Cl)cc2)nn1-c1c(OC(=O)CC(C)C)cnn(C)c1=O [Compound 37]
- Plant response rating, Ducksalad ([1]; 62 g ai/ha): 70
- Plant response rating, Ducksalad ([1]; 125 g ai/ha): 70
- Plant response rating, Ducksalad ([1]; 250 g ai/ha): 75
- Cocklebur plant response rating [2, 12]: 0
- Plant response rating, Cocklebur [2, 13]: 0
- Plant response rating, Cocklebur [2, 14]: 0
- Plant response rating, Cocklebur [2, 15]: 0
- Plant response rating, Cocklebur [2, 16]: 0
- Plant response rating, Cocklebur [2, 17]: 0
- Plant response rating, Cocklebur [2, 18]: 0
- Cocklebur plant response rating [2, 19]: 0
- Goosegrass plant response rating [3, 12]: 100
- Plant response rating, Goosegrass [3, 13]: 100
- Plant response rating, Goosegrass [3, 14]: 100
- Plant response rating, Goosegrass [3, 15]: 100
- Plant response rating, Goosegrass [3, 16]: 90
- Plant response rating, Goosegrass [3, 17]: 98
- Plant response rating, Goosegrass [3, 18]: 100
- Goosegrass plant response rating [3, 19]: 75
- Plant response rating, Sunflower [4, 20]: 0
- Plant response rating, Sunflower [4, 21]: 0
- Plant response rating, Sunflower ([4]; 62 g ai/ha, scale 0 to 100): 30
- Sunflower plant response rating ([4]; 8 g ai/ha, scale 0 to 100): 0
- Corn plant response rating (corn (Zea mays); [12]): 45
- Plant response rating, Corn (corn (Zea mays); [13]): 95
- Plant response rating, Corn (corn (Zea mays); [14]): 100
- Plant response rating, Corn (corn (Zea mays); [15]): 100
- Plant response rating, Corn (corn (Zea mays); [16]): 40
- Plant response rating, Corn (corn (Zea mays); [17]): 95
- Plant response rating, Corn (corn (Zea mays); [18]): 98
- Corn plant response rating (corn (Zea mays); [19]): 40
- Bermudagrass plant response rating [5, 12]: 80
- Plant response rating, Bermudagrass [5, 13]: 85
- Plant response rating, Bermudagrass [5, 14]: 100
- Plant response rating, Bermudagrass [5, 15]: 100
- Bermudagrass plant response rating [5, 22]: 90
- Plant response rating, Bermudagrass [5, 16]: 90
- Plant response rating, Bermudagrass [5, 17]: 100
- Plant response rating, Bermudagrass [5, 18]: 100
- Ragweed plant response rating [6, 12]: 0
- Plant response rating, Ragweed [6, 13]: 0
- Plant response rating, Ragweed [6, 14]: 0
- Plant response rating, Ragweed [6, 15]: 0
- Plant response rating, Ragweed [6, 16]: 0
- Plant response rating, Ragweed [6, 17]: 0
- Plant response rating, Ragweed [6, 18]: 0
- Ragweed plant response rating [6, 19]: 0
- Plant response rating, Russian Thistle [7, 20]: 0
- Plant response rating, Russian Thistle [7, 21]: 0
- Plant response rating, Russian Thistle ([7]; 62 g ai/ha, scale 0 to 100): 90
- Russian Thistle plant response rating ([7]; 8 g ai/ha, scale 0 to 100): 0
- Crabgrass, Large plant response rating [8, 12]: 70
- Plant response rating, Crabgrass, Large [8, 13]: 70
- Plant response rating, Crabgrass, Large [8, 14]: 85
- Plant response rating, Crabgrass, Large [8, 15]: 100
- Plant response rating, Crabgrass, Large [8, 16]: 98
- Plant response rating, Crabgrass, Large [8, 17]: 100
- Plant response rating, Crabgrass, Large [8, 18]: 100
- Crabgrass, Large plant response rating [8, 19]: 70
- Soybean plant response rating (soybean (Glycine max); [12]): 0
- Plant response rating, Soybean (soybean (Glycine max); [13]): 0
- Plant response rating, Soybean (soybean (Glycine max); [15]): 0
- Plant response rating, Soybean (soybean (Glycine max); [16]): 0
- Plant response rating, Soybean (soybean (Glycine max); [17]): 0
- Plant response rating, Soybean (soybean (Glycine max); [18]): 0
- Soybean plant response rating (soybean (Glycine max); [19]): 0
- Lambsquarters plant response rating [9, 12]: 0
- Plant response rating, Lambsquarters [9, 13]: 0
- Plant response rating, Lambsquarters [9, 14]: 0
- Plant response rating, Lambsquarters [9, 15]: 0
- Plant response rating, Lambsquarters [9, 16]: 0
- Plant response rating, Lambsquarters [9, 17]: 0
- Plant response rating, Lambsquarters [9, 18]: 0
- Lambsquarters plant response rating [9, 19]: 0
- Kochia plant response rating (kochia (Kochia scoparia); [12]): 0
- Plant response rating, Kochia (kochia (Kochia scoparia); [13]): 0
- Plant response rating, Kochia (kochia (Kochia scoparia); [14]): 0
- Plant response rating, Kochia (kochia (Kochia scoparia); [15]): 0
- Plant response rating, Kochia (kochia (Kochia scoparia); [16]): 0
- Plant response rating, Kochia (kochia (Kochia scoparia); [17]): 0
- Plant response rating, Kochia (kochia (Kochia scoparia); [18]): 0
- Kochia plant response rating (kochia (Kochia scoparia); [19]): 0
- Surinam Grass plant response rating [10, 12]: 95
- Plant response rating, Surinam Grass [10, 13]: 100
- Plant response rating, Surinam Grass [10, 15]: 100
- Plant response rating, Surinam Grass [10, 16]: 85
- Plant response rating, Surinam Grass [10, 17]: 98
- Plant response rating, Surinam Grass [10, 18]: 100
- Surinam Grass plant response rating [10, 19]: 65
- Wheat plant response rating [11, 12]: 15
- Plant response rating, Wheat [11, 13]: 50
- Plant response rating, Wheat [11, 15]: 95
- Plant response rating, Wheat [11, 16]: 0
- Plant response rating, Wheat [11, 17]: 5
- Plant response rating, Wheat [11, 18]: 70
- Wheat plant response rating [11, 19]: 0

Compound: CCCc1cc(-c2ccc(Cl)cc2)nn1-c1c(O)cnn(C)c1=O [Compound 76]
- Plant response rating, Ducksalad ([1]; 62 g ai/ha): 0
- Plant response rating, Ducksalad ([1]; 250 g ai/ha): 0
- Cocklebur plant response rating [2, 12]: 0
- Plant response rating, Cocklebur [2, 13]: 0
- Plant response rating, Cocklebur [2, 23]: 0
- Plant response rating, Cocklebur [2, 15]: 0
- Plant response rating, Cocklebur [2, 24]: 0
- Plant response rating, Cocklebur [2, 25]: 0
- Cocklebur plant response rating [2, 19]: 0
- Cocklebur plant response rating [2, 26]: 0
- Goosegrass plant response rating [3, 12]: 20
- Goosegrass plant response rating [3, 27]: 60
- Plant response rating, Goosegrass [3, 23]: 70
- Plant response rating, Goosegrass [3, 15]: 75
- Plant response rating, Goosegrass [3, 24]: 80
- Plant response rating, Goosegrass [3, 25]: 100
- Goosegrass plant response rating [3, 19]: 20
- Goosegrass plant response rating [3, 26]: 75
- Plant response rating, Sunflower [4, 28]: 0
- Plant response rating, Sunflower [4, 29]: 0
- Sunflower plant response rating ([4]; 8 g ai/ha, scale 0 to 100): 0
- Sunflower plant response rating ([4]; 16 g ai/ha, scale 0 to 100): 0
- Corn plant response rating (corn (Zea mays); [12]): 75
- Plant response rating, Corn (corn (Zea mays); [13]): 85
- Plant response rating, Corn (corn (Zea mays); [23]): 100
- Plant response rating, Corn (corn (Zea mays); [15]): 100
- Plant response rating, Corn (corn (Zea mays); [24]): 75
- Plant response rating, Corn (corn (Zea mays); [25]): 85
- Corn plant response rating (corn (Zea mays); [19]): 0
- Corn plant response rating (corn (Zea mays); [26]): 55
- Bermudagrass plant response rating [5, 12]: 70
- Plant response rating, Bermudagrass [5, 13]: 80
- Plant response rating, Bermudagrass [5, 23]: 85
- Plant response rating, Bermudagrass [5, 15]: 90
- Bermudagrass plant response rating [5, 22]: 0
- Bermudagrass plant response rating [5, 16]: 20
- Plant response rating, Bermudagrass [5, 24]: 100
- Plant response rating, Bermudagrass [5, 25]: 100
- Ragweed plant response rating [6, 12]: 0
- Ragweed plant response rating [6, 27]: 0
- Plant response rating, Ragweed [6, 23]: 0
- Plant response rating, Ragweed [6, 15]: 0
- Plant response rating, Ragweed [6, 24]: 0
- Plant response rating, Ragweed [6, 25]: 0
- Ragweed plant response rating [6, 19]: 0
- Ragweed plant response rating [6, 26]: 0
- Plant response rating, Russian Thistle [7, 28]: 0
- Plant response rating, Russian Thistle [7, 29]: 0
- Russian Thistle plant response rating ([7]; 8 g ai/ha, scale 0 to 100): 0
- Russian Thistle plant response rating ([7]; 16 g ai/ha, scale 0 to 100): 0
- Crabgrass, Large plant response rating [8, 12]: 20
- Plant response rating, Crabgrass, Large [8, 13]: 85
- Plant response rating, Crabgrass, Large [8, 23]: 95
- Plant response rating, Crabgrass, Large [8, 15]: 100
- Plant response rating, Crabgrass, Large [8, 24]: 55
- Plant response rating, Crabgrass, Large [8, 25]: 98
- Crabgrass, Large plant response rating [8, 19]: 0
- Crabgrass, Large plant response rating [8, 26]: 20
- Soybean plant response rating (soybean (Glycine max); [12]): 0
- Soybean plant response rating (soybean (Glycine max); [27]): 0
- Plant response rating, Soybean (soybean (Glycine max); [23]): 0
- Plant response rating, Soybean (soybean (Glycine max); [15]): 0
- Plant response rating, Soybean (soybean (Glycine max); [24]): 0
- Plant response rating, Soybean (soybean (Glycine max); [25]): 0
- Soybean plant response rating (soybean (Glycine max); [19]): 0
- Soybean plant response rating (soybean (Glycine max); [26]): 0
- Lambsquarters plant response rating [9, 12]: 0
- Lambsquarters plant response rating [9, 27]: 0
- Plant response rating, Lambsquarters [9, 23]: 0
- Plant response rating, Lambsquarters [9, 15]: 0
- Plant response rating, Lambsquarters [9, 24]: 0
- Plant response rating, Lambsquarters [9, 25]: 0
- Lambsquarters plant response rating [9, 19]: 0
- Lambsquarters plant response rating [9, 26]: 0
- Kochia plant response rating (kochia (Kochia scoparia); [12]): 0
- Kochia plant response rating (kochia (Kochia scoparia); [27]): 0
- Plant response rating, Kochia (kochia (Kochia scoparia); [23]): 0
- Plant response rating, Kochia (kochia (Kochia scoparia); [15]): 0
- Surinam Grass plant response rating [10, 12]: 65
- Surinam Grass plant response rating [10, 27]: 90
- Plant response rating, Surinam Grass [10, 23]: 100
- Plant response rating, Surinam Grass [10, 15]: 100
- Plant response rating, Surinam Grass [10, 24]: 95
- Plant response rating, Surinam Grass [10, 25]: 100
- Surinam Grass plant response rating [10, 19]: 65
- Surinam Grass plant response rating [10, 26]: 90
- Wheat plant response rating [11, 12]: 10
- Wheat plant response rating [11, 27]: 30
- Plant response rating, Wheat [11, 23]: 30
- Plant response rating, Wheat [11, 15]: 35
- Plant response rating, Wheat [11, 24]: 0
- Plant response rating, Wheat [11, 25]: 0
- Wheat plant response rating [11, 26]: 0

Reference: US20100267561A1, “HERBICIDAL PYRIDAZINONE DERIVATIVES” (priority 2007, published 2010)
